Source: EP3878447A1, “BETA ADRENERGIC RECEPTOR ANTAGONISTS” (InterAx Biotech AG, priority 2020, dated 2021)
Counter-ions that a name gives are not always drawn. Like-named read-outs stand apart in the source and are kept apart here.

How the values were obtained:
B2AR [1] = molecular target: T1, B2AR (Homo sapiens, UniProt P07550)
B1AR = B1AR (Homo sapiens, UniProt P08588); experiment: Real-time cAMP inhibition assay in SNAP-B1AR-EPAC HEK cells; conditions: SNAP-B1AR-EPAC HEK cells stimulated with 50 nM Isoproterenol for 10 min, compound for additional 40 min, AUC of EPAC FRET ratio; mean ± SD
Sequence of B1AR (P08588 whole entry): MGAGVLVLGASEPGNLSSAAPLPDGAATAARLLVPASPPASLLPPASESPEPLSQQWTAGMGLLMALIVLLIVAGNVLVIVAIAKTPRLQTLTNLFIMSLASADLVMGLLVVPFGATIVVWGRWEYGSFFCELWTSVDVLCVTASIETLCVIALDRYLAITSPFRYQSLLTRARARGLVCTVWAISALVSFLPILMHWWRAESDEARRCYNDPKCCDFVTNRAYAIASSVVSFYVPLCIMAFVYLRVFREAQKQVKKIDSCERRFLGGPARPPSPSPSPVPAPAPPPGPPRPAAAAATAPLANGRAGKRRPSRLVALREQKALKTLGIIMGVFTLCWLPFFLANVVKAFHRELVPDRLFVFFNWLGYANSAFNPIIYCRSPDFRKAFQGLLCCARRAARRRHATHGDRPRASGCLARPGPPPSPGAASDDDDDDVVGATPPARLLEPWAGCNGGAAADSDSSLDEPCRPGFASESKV

B2AR [2] = molecular target: T1, B2AR; experiment: Heterologous competition radioligand binding assay ([3H]-DHA) on SNAP-B2AR HEK membranes; conditions: equilibrium competition binding with 1 nM [3H]-DHA, 120 min RT, mean ± SD
From the text: Radioactivity was quantified using single photon counting on a TopCount NXT microplate scintillation and luminescence counter (Packard).

B2AR [3] = molecular target: T1, B2AR; experiment: biochemical
B2AR [4] = molecular target: T1, B2AR; experiment: Saturation binding of [3H]-DHA on SNAP-B2AR HEK membranes; design: membranes prepared from it; conditions: 5 µg SNAP-B2AR HEK membranes, specific binding; Mean ± SD, n=3; read-out: equilibrium dissociation constant (KD)

Row | Compound | Ki (B2AR [1]) [µM] | pKi (B2AR [2]) | Ki (B2AR [3]) [µM] | further results
1 | 4-[2-(aminomethyl)-2,3-dihydro-1-benzofuran-7-yl]benzamide [Compound 7] | 1.26 | 6.0 ± 0.1 | – | pIC50 (B1AR): 4.6 ± 0.5
2 | 5-[2-(aminomethyl)-2,3-dihydro-1-benzofuran-7-yl]pyridin-2-amine [Compound 5] | 2.51 | 5.5 ± 0.1 | – | –
3 | NCC1Cc2cccc(-c3ccc(O)cc3)c2O1 (stereo not drawn) [Compound 4, 4-[2-(aminomethyl)-2,3-dihydro-1-benzofuran-7-yl]phenol] | – | – | 0.1 to 1 | –
4 | COc1ccc(-c2cc(F)cc3c2OC(CN)C3)cn1 (stereo not drawn) [Compound 6, 1-[5-fluoro-7-(6-methoxypyridin-3-yl)-2,3-dihydro-1-benzofuran-2-yl]methanamine] | – | – | 0.1 to 1 | –
5 | NCC1Cc2cccc(-c3ccc(O)c(F)c3)c2O1 (stereo not drawn) [Compound 8, 4-[2-(aminomethyl)-2,3-dihydro-1-benzofuran-7-yl]-2-fluorophenol] | – | – | 0.1 to 1 | –
6 | CCCc1ccccc1OC[C@@H](O)CNC(C)C [[^3H]-DHA, Dihydroalprenolol Hydrochloride, Levo-[Ring, Propyl-3H(N)]-] | – | – | – | Kd (B2AR [4]): 0.0003 ± 0.0001 µM
